# Measured values published in patent publication US20040053826A1, “Uses of polypeptides” (priority 2000, published 2004).
# Bridge positions count the residues as written; N and C are the ends. Ends that are not written are not given here.
# Assays:
# [1] = test system: Wistar male rats; test: Locomotion measurement: effects of diazepam on locomotion induced by intraventricular polypeptide (SEQ ID NO: 9) or PACAP38; format: in vivo, rat
# Excerpt: (§1) Each of Wistar male rats (8 weeks old) was anesthetized with pentobarbital and fixed on a stereotaxic apparatus. A guide cannula (AG-8, Eicom) was inserted into the lateral ventricle of each rat (AP: +8.1 mm, L: 1.8 mm, H: +7.1 mm). The rats were then allowed to recover for at least one week before the experiment. During the recovery period, handling was made every day to reduce stresses resulting from intraventricular administration.
# (§2) The cannulated rats were transferred to a locomotion testing system (Supermex, Muromachi Kikai Co., Ltd.) and acclimatized overnight. The rats were transferred from the locomotion testing system and subcutaneously administered with diazepam (1 mg/kg). An hour later, the rats were intraventricularly administered with the polypeptide (SEQ ID NO: 9; 10 nmol) or PACAP38 (3 nmol) dissolved in phosphate buffered saline (PBS) at a flow rate of 2.5 μl/min for 4 minutes. Immediately after the administration, the rats were returned to the locomotion testing system and tested for their spontaneous locomotion (FIG. 4).
# [2] = test system: C57BL/6N mice; test: Elevated plus maze test; format: in vivo, mouse; details: for (Open arm entries)/(open arm entries + closed arm entries): 30 minutes after administration, tested over 5 minutes
# Excerpt: An acrylic maze having 4 arms (25 cm long, 8 cm wide) placed in the shape of a cross (elevated plus maze) was positioned in a sound-proof chamber under low illumination (0.5 lux). Two opposite arms of the elevated plus maze were enclosed by walls (closed arms) and the other two arms were wall-less (open arms). The maze was elevated 25 cm above the floor (FIG. 5).
# (§3) After C57BL/6N mice were acclimatized in the laboratory, PBS containing the polypeptide (SEQ ID NO: 9; 1 nmol or 3 nmol) or PBS alone was administered in a volume of 5 μl into the lateral ventricle of each mouse using a double-needle (Matsumoto Seisakusho) under ether anesthesia. Thirty minutes after the administration, each mouse was placed on the elevated plus maze and tested over 5 minutes for the number of entries into each arm and the time spent on open arms.
# [3] = test system: Wistar male rats; test: Locomotion measurement (spontaneous locomotion and number of rearings) after administration into the lateral ventricle; format: in vivo, rat
# Excerpt: as §1, with “Wistar” for “Each of Wistar”, “rats (9” for “rats (8”, “old) were” for “old) was”, “and” for “and fixed on”, “a” for “a stereotaxic apparatus. A”
# On the day before the experiment, the rats were transferred to a locomotion testing system for acclimation purposes. Under unanesthetized and unrestrained conditions, a microinjection cannula was attached to the guide cannula through which each rat was administered with the polypeptide (SEQ ID NO: 9; 10 nmol) dissolved in phosphate buffered saline (PBS) or PBS alone at a rate of 5 μl/min for 2 minutes. Immediately after the administration, the rats were returned to the locomotion testing system (Supermex, Muromachi Kikai Co., Ltd.) and tested for their spontaneous locomotion and the number of rearings (FIG. 1).
# Wistar male rats (9 weeks old) were anesthetized with pentobarbital and a guide cannula (AG-8, Eicom) was inserted into the lateral ventricle of each rat (AP: 8.1 mm, L: 1.8 mm, H: 7.1 mm). The rats were then allowed to recover for at least one week before the experiment. During the recovery period, handling was made every day to reduce stresses resulting from intraventricular administration.
# On the day before the experiment, the rats were transferred to a locomotion testing system for acclimation purposes. Under unanesthetized and unrestrained conditions, a microinjection cannula was attached to the guide cannula through which each rat was administered with the polypeptide (SEQ ID NO: 9; 1 nmol) dissolved in PBS or PBS alone in a volume of 10 μl (5 μl/min for 2 minutes). Immediately after the administration, the rats were returned to the locomotion testing system (Supermex, Muromachi Kikai Co., Ltd.) and tested for their spontaneous locomotion and the number of rearings (FIG. 2).
# as §1
# as §2, with “and” for “and subcutaneously administered with diazepam (1 mg/kg). An hour later, the rats were”, “9; 1 nmol or” for “9;”, “10” for “10 nmol) or PACAP38 (3”, “(PBS) or PBS alone” for “(PBS)”, “5” for “2.5”, “and the number of rearings.” for “(FIG. 4).”
# [4] = test system: C57BL/6N mice; test: Hole board test; format: in vivo, mouse; details: 0.1, 0.3 or 3 nmol into the lateral ventricle, 30 minutes after administration, over 5 minutes
# Description: A polyvinyl chloride box having 4 holes (diameter: 3.8 cm) at its bottom was used as a hole board. Locomotion on the hole board was measured with a Supermex sensor (Muromachi Kikai Co., Ltd.). To measure the number of head dippings, MRS-110RX infrared-scanning sensors (Muromachi Kikai Co., Ltd.) were provided immediately below the respective holes.
# as §3, with “9; 0.1 nmol, 0.3” for “9; 1”, “placed in” for “placed on”, “the center of the hole board” for “the elevated plus maze”, “for locomotion and” for “for”, “of head dippings.” for “of entries into each arm and the time spent on open arms.”
# [5] = Example 1, 10 nmol into the lateral ventricle
# [6] = Example 2, 1 nmol into the lateral ventricle
# [7] = Example 3, 10 nmol intraventricularly
molecule,measurement,setting,value
"CN1C(=O)CN=C(c2ccccc2)c2cc(Cl)ccc21 [Diazepam, diazepam]",effect on the increase in locomotion induced by PACAP38,[1]; diazepam 1 mg/kg subcutaneously 1 hour before PACAP38 3 nmol intraventricularly,dose not affect
same,effect on the increase in locomotion induced by the polypeptide (SEQ ID NO: 9),[1]; diazepam 1 mg/kg subcutaneously 1 hour before polypeptide (SEQ ID NO: 9) 10 nmol intraventricularly,significantly inhibits
polypeptide (SEQ ID NO: 9): bovine SENR ligand peptide; the 6th and 11th cysteine residues form an intramolecular disulfide bond (GPSSECFWKYCV; disulfide 6-11),(Open arm entries)/(open arm entries + closed arm entries),"[2]; 1 nmol into the lateral ventricle, n=20",0.131 ± 0.009
same,probability to select open arms,[2]; 1 nmol or 3 nmol into the lateral ventricle,reduced
same,(Open arm entries)/(open arm entries + closed arm entries),"[2]; 3 nmol into the lateral ventricle, n=20, *p < 0.05, Dunnett",0.065 ± 0.018*
same,locomotion after the initial decrease,[3]; [5],increase in their locomotion
same,number of rearings,[3]; [5],same effects as found in spontaneous locomotion
same,"spontaneous locomotion immediately after the administration, as compared with the control rats",[3]; [5],tended to decrease
same,inhibition against a transient increase in locomotion as observed in 10 nmol administration,[3]; [6],did not show such an inhibition
same,locomotion from immediately after the administration,[3]; [6],increase in their locomotion
same,locomotion and the number of rearings from immediately after the administration,"[3]; Example 3, 1 nmol intraventricularly",increases
same,duration of the decreases in locomotion and number of rearings,[3]; [7],about 10 minutes
same,duration of the increase in locomotion,[3]; [7],about 1 hour
same,locomotion and the number of rearings immediately after the administration,[3]; [7],decreases
same,locomotion following the transient decrease,[3]; [7],increase in locomotion
same,number of rearings,"[3]; Example 3, 10 nmol intraventricularly, less significant tendency to increase",51.0±13.4 times/90 min
same,locomotion on the hole board,[4],no change
same,number of head dippings,[4],significant decrease
"PACAP38: PACAP38 known to have the ability to increase locomotion (HSDGIFTDSYSRYRKQMAVKKYLAAVLGKRYKQRVKNK; ends and bridges not checked; UniProt P18509 132-169, looked up)",spontaneous locomotion,[1]; PACAP38 3 nmol intraventricularly,increase in locomotion
